{
  "source": "paper PMC4621012",
  "about": "(Molecules, 2014)",
  "target": "GRK5 (Bos taurus, UniProt P43249)",
  "sequence (P43249 whole entry)": "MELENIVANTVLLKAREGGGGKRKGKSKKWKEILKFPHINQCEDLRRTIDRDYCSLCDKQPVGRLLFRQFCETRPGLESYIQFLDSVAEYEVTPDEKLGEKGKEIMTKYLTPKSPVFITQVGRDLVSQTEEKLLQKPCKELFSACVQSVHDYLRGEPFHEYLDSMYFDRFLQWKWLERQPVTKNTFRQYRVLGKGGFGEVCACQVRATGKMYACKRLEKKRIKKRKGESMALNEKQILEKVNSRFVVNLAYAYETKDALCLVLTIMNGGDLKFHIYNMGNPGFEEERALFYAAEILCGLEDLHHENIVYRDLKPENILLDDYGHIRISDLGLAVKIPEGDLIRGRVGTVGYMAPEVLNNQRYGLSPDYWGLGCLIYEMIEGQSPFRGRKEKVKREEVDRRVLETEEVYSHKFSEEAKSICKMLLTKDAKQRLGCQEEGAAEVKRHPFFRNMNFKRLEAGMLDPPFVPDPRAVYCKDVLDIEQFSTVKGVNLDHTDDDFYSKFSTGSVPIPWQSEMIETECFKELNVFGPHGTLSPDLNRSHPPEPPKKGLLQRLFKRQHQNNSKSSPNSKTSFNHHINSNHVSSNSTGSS",
  "test": "DSF (ThermoFluor, ANS) melting point shift, dose response, reconfirmed by replating; no Kd",
  "type": "binding",
  "data": [
    {"smiles": "CN[C@@H]1C[C@H]2O[C@@](C)([C@@H]1OC)n1c3ccccc3c3c4c(c5c6ccccc6n2c5c31)C(=O)NC4", "note": "[staurosporine]", "values": [
      {"measurement": "DSF (ThermoFluor, ANS) melting point shift, dose response, reconfirmed by replat", "result": "Staurosporine, which served effectively as a positive control, was not analyzed further."}
    ]}
  ]
}
